Measured values taken from the NIST ThermoML archive (doi:10.1016/j.fluid.2007.12.005).
“And” between values parts separate entries of the source, which are not always exact repeats. Equal entries are not always repeated. Numbers after ± are expanded uncertainties.

Conditions: 313.15 K; Liquid; Closed cell (Static) method

Row | vapor or sublimation pressure | SMILES
1 | 31.64 ± 0.12 kPa and 31.65 ± 0.12 kPa | CCOC(C)(C)C [2-ethoxy-2-methylpropane]
2 | 12.31 ± 0.056 kPa and 12.32 ± 0.056 kPa | CCCCCCC [heptane]
3 | 44.96 ± 0.24 kPa and 44.95 ± 0.24 kPa | C=CCCCC [hex-1-ene]
